US20090291908A1, “Use of thiophoshonoformic acid and nrtis to treat viral infections” (priority 2005, published 2009)

Key:
[1] = system: panel of NRTI and NNRTI resistant HIV-1; assay: PhenoSense reporter assay, panel of ten resistant viruses; assay type: cell-based; settings: FIG. 2; for susceptibility of the resistant virus panel: all viruses of the panel
Source text: Antiviral activity also can be quantitatively measured using a PhenoSense™ assay. A PhenoSense™ assay uses nucleic acid amplification to derive HIV protease and reverse transcriptase nucleic acid sequences from plasma. The patient-derived sequences are incorporated into a viral vector to construct a resistance test vector (RTV). The viral vector also contains an indicator or reporter gene (e.g., green fluorescent protein, luciferase, beta galactosidase, etc.) inserted within a deleted portion of the HIV envelope gene. The reporter gene is under the control of a strong promoter (e.g., a CMV promoter) in the RTV.
The PhenoSense™ assay is performed by introducing the RTV nucleic acid sequence into host cells, collecting virus particles after transfection, and using the virus particles to infect target cells. Drug susceptibility is measured by comparing reporter gene activity produced in the presence and absence of drugs. The presence of drug can be one or more different concentrations, for example, several titrated concentrations.
The data are analyzed by plotting the percent inhibition of viral replication, as measured by reporter gene activity, against the log10 concentration of drug for the patient virus (in the RTV) and a drug sensitive reference virus. The resulting drug susceptibility curve is used to calculate the concentration of drug required to inhibit viral replication by 50% (IC50). A shift in the patient inhibition curve toward a higher drug concentration as compared to the curve of the drug-sensitive reference virus is interpreted as reduced drug susceptibility. A shift in the patient inhibition curve toward a lower drug concentration as compared to the curve of the drug-sensitive reference virus is interpreted as increased drug susceptibility. PhenoSense™ can be conducted by a commercial service provider, for example, Monogram Biosciences, South San Francisco, Calif.
All Phenosense™ assays were performed at Virologic, Inc as described (Petropoulos, et al. (2000) Antimicrob Agents Chemother 44:920). Briefly, the envelope gene is deleted from wild type HIV-1 and luciferase reporter inserted under control of a strong CMV promoter. Viral stocks are produced by co-transfection of producer cells with the recombinant viral DNA and a vector that expresses envelope protein from an amphotropic murine leukemia virus. Pseudotyped viral particles are replication defective and only undergo one round of infection. Expression of the luciferase gene in target cells is dependent on a single round of infection.
The activity of Thiovir™ was evaluated against viruses that are resistant to common NRTI and NNRTI drugs using the Phenosense™ reporter system (Petropoulos, supra). […]

HIV in H9 T-cells = assay type: cell-based; settings: p24 assay; combined with tenofovir at a ratio of 1:1
Procedure: Reduction in viral titer also can be measured using an ELISA capture assay with antibodies specific for viral capsid proteins (e.g., HIV-1 p24).
H9 T-cells were pretreated with polybrene at 4 μg/ml and drug at indicated concentrations in RPMI plus 10% fetal calf serum for 30 minutes prior to adsorption of virus at multiplicities of infection (MOI) 0.1 for 2 hours at 37° C., 5% CO2. Cells were washed 3 times with PBS and resuspended in fresh media plus drug. Incubation at 37° C., 5% CO2 was continued for 4-6 days and cells centrifuged at 1200 rpm. Supernatants were removed and p24 detected by quantitative antigen capture kit (Zeptometrix, Buffalo, N.Y.).

[2] = system: Foscarnet resistant HIVLAI, selection 1 (L214F, R172K); assay: IC50 by MAGI assay on selected resistant virus; assay type: cell-based, HIV-1; settings: Drug Resistant Virus: Foscarnet (Selection # 1)
Procedure: (§1) Thiovir™ and foscarnet resistant viruses were selected by in vitro passage of HIVLAI on H9 cells in the presence of escalating concentrations of drug. Resistant virus was evaluated for phenotypic changes by IC50 determination using the MAGI assay. Furthermore, the viral DNA was sequenced to determine genotypic variations (Table 4). Two independent 13 to 15 round selections were performed.

[3] = system: Foscarnet resistant HIVLAI, selection 2 (L214F, M184I); assay: IC50 by MAGI assay on selected resistant virus; assay type: cell-based, HIV-1; settings: Drug Resistant Virus: Foscarnet (Selection # 2)
Procedure: as §1

[4] = system: Thiovir™ resistant HIVLAI, selection 1 (L214F, R172K, Q174R); assay: IC50 by MAGI assay on selected resistant virus; assay type: cell-based, HIV-1; settings: for Susceptibility Index (IC50 Resistant Virus/IC50 Purent Virus): Drug Resistant Virus: Thiovir ™ (Selection # 1), MAGI assay
Procedure: as §1

[5] = system: Thiovir™ resistant HIVLAI, selection 2 (L214F, M184I); assay: IC50 by MAGI assay on selected resistant virus; assay type: cell-based, HIV-1; settings: for Susceptibility Index (IC50 Resistant Virus/IC50 Purent Virus): Drug Resistant Virus: Thiovir ™ (Selection # 2), MAGI assay
Procedure: as §1

[6] = system: Thiovir™ and foscarnet selected virus; assay: Susceptibility of selected viruses; assay type: cell-based, HIV-1; settings: both Thiovir™ and foscarnet selected virus
Procedure: Wild type and antiviral drug resistant HIV were tested for sensitivity to anti-viral drugs using either MAGI assay or Phenosense™ assay. The 50% inhibitory concentration, IC50, was then determined from a plot of percent inhibition vs. log10 drug concentration.
MAGI cells were seeded at approximately 5×10^4 cells per well in a 12 well plate in DMEM with 10% fetal calf serum and incubated overnight at 37° C. in 5% CO2. Drug was added at various concentrations and incubated for approximately 30 to 60 minutes. Cells were infected with either HIV-1 HXB2 or HIV-1IIIB in the presence of either 4 microg/ml polybrene or 60 microg/ml dextran. Infection was continued for 48 hours and cells fixed using 0.05% glutaraldehyde. […] Blue nuclei were counted under a microscope at 100× magnification.
To select for drug resistant variants, 1×10^6H9 cells were pretreated for two hours at three concentrations of AZT (0.5, 1 and 2 μM), Nevirapine (0.5, 1 and 2 μM), foscarnet (25 and 50 μM) and Thiovir™ (25 and 50 μM) prior to infection at MOI of 0.1 of HIVIIIB or HIVLAI. […] Virus was passaged at increasing drug concentration and monitored for increase in IC50. […]
Thiovir™ and foscarnet resistant viruses were selected by in vitro passage of HIVLAI on H9 cells in the presence of escalating concentrations of drug. Resistant virus was evaluated for phenotypic changes by IC50 determination using the MAGI assay. […]

O=C(O)P(O)(O)=S [Thiovir™, thiophosphonoformic acid]
susceptibility of the resistant virus panel [1]: sensitive
susceptibility of the majority of the panel viruses [1]: hypersensitive
drug interaction in words, combined with tenofovir (HIV in H9 T-cells): synergy
Susceptibility Index (IC50 Resistant Virus/IC50 Purent Virus) [2]: 6.3
Susceptibility Index (IC50 Resistant Virus/IC50 Purent Virus) [3]: 100
Susceptibility Index (IC50 Resistant Virus/IC50 Purent Virus) [4]: 4.8
resistance of selected virus ([4]; first Thiovir™ selected resistant virus): 4.8 fold
Susceptibility Index (IC50 Resistant Virus/IC50 Purent Virus) [5]: 113
resistance of selected virus ([5]; second Thiovir™ selected resistant virus): 85 fold

Cc1ccnc2c1NC(=O)c1cccnc1N2C1CC1 [Nevirapine]
Susceptibility Index (IC50 Resistant Virus/IC50 Purent Virus) [2]: 1.06
Susceptibility Index (IC50 Resistant Virus/IC50 Purent Virus) [4]: 1.05
susceptibility of selected virus in words [6]: sensitive

O=C(O)P(=O)(O)O [Foscarnet, phosphonoformic acid]
susceptibility of the resistant virus panel [1]: sensitive
susceptibility of the majority of the panel viruses [1]: hypersensitive
drug interaction in words, combined with tenofovir (HIV in H9 T-cells): additive to antagonistic
Susceptibility Index (IC50 Resistant Virus/IC50 Purent Virus) [2]: 4.1
Susceptibility Index (IC50 Resistant Virus/IC50 Purent Virus) [3]: 103
Susceptibility Index (IC50 Resistant Virus/IC50 Purent Virus) [4]: 4.8
Susceptibility Index (IC50 Resistant Virus/IC50 Purent Virus) [5]: 85

Cc1cn([C@H]2C[C@H](N=[N+]=[N-])[C@@H](CO)O2)c(=O)[nH]c1=O [Zidovudine, Azidothymidine]
Susceptibility Index (IC50 Resistant Virus/IC50 Purent Virus) [2]: 0.87
Susceptibility Index (IC50 Resistant Virus/IC50 Purent Virus) [3]: 0.58
Susceptibility Index (IC50 Resistant Virus/IC50 Purent Virus) [4]: 0.22
Susceptibility Index (IC50 Resistant Virus/IC50 Purent Virus) [5]: 0.35
